Test results published in article PMC9282638, “A Suite of Activity-Based Probes To Dissect the KLK Activome in Drug-Resistant Prostate Cancer” (Journal of the American Chemical Society, 2021).

Tests used:
LNCaP-K14 cells = assay type: cell-based, human; details: for cytotoxicity: 10 μM, 96 h time period; for effect on proliferation (cell confluency): Figure S27
Excerpt: Prior to the establishment of bone metastases circulating PCa cells must first enter the bone microenvironment by migrating across the sinusoidal wall.[54] We have previously shown that increased KLK14 activity drives PCa cell migration and colonization of mineralized bone matrices.[15] However, the specific contributions of the KLK activome (KLK2, KLK3, and KLK14) toward PCa cell migration are yet to be elucidated. […] We then assessed the migratory capacity of LNCaP-K14 cells using a transwell assay (see Figure S28 for standard curve).
proliferation of LNCaP-K14 cells. Cell confluency was monitored by real-time imaging using
an Incucyte S3 system (Essen Bioscience).
(1 picture or pasted object on this page, not shown here)

[1] = test system: KLK activome (KLK2, KLK3, KLK14) in LNCaP-K14 cells; test: Residual KLK activity in conditioned media of bABP-treated LNCaP-K14 cells, read out with fABP cocktail; assay type: cell-based, human; details: 1 μM bABP co-incubated with 10 nM DHT and 200 nM Dox for 48 h
Excerpt: The data presented above provide evidence that KLK activity in PCa is regulated by the AR at a level beyond simple changes in expression and raise the possibility that KLK activities may be actionable targets for therapeutic intervention at different disease stages, in particular during PCa metastasis to bone. However, KLKs are predicted to form complex proteolytic networks and it is often not clear which protease(s) should be inhibited for maximum phenotypic response in a particular disease setting. […] To enable dissection of the PCa KLK activome directly in LNCaP cells, we further expanded the KLK probe toolbox by synthesizing KLK2_fABP (42) and KLK14_fABP (43) (Figure 6A and Figure S2), fluorescent ABP (fABP) analogues of KLK2_bABP and KLK14_bABP bearing dyes fluorescing at discrete wavelengths, which retain excellent potency and selectivity for KLK2 and KLK14, respectively (Figure S25). KLK2_fABP and KLK14_fABP were combined with KLK3-selective fABP 21 (KLK3_fABP) in an “fABP cocktail” to a final concentration of 1 μM each and incubated for 20 min with CM obtained from LNCaP-WT, LNCaP-mK14, or LNCaP-K14 cells following 48 h treatment with 10 nM DHT to enable simultaneous multicolor readout of KLK2, KLK3, and KLK14 activity. […] However, upon Dox-induced KLK14 expression in DHT-treated LNCaP-K14 cells a significant increase in the activity of all three KLKs was evident (see Figure 6B and Figure S26 for gel quantification). […] Residual KLK activity in CM was then assessed using the fABP cocktail (Figure 6B).
Figure 6 Dissecting the KLK activome in LNCaP cells. […] (B) KLK activity profiling by in-gel fluorescence of conditioned media obtained from LNCaP-WT, LNCaP-mK14, and LNCaP-K14 cells following treatment with DHT (10 nM), Dox (100 ng/mL), and the appropriate biotinylated ABP using fluorescent ABPs 20, 42 and 43. See Figure S26 for blot and gel quantification. […] Cultures were incubated for a further 24 h before the number of migrating cells was quantified.

SMILES	cytotoxicity (LNCaP-K14 cells)	effect on proliferation (cell confluency) (LNCaP-K14 cells)	effect on activity of the other KLKs [1]
CCC[C@H](NC(=O)[C@H](CCC(N)=O)NC(=O)[C@H](CC(N)=O)NC(=O)CCCCCNC(=O)CCCC[C@@H]1SC[C@@H]2NC(=O)N[C@@H]21)C(=O)NC(c1ccc(C(N)=O)cc1)P(=O)(Oc1ccccc1)Oc1ccccc1 (stereo partly drawn) [compound 20]	no cytotoxicity	no significant effect	does not affect the activity of other KLKs
CC(C)(C)C(NC(=O)CCCCCNC(=O)CCCCC1SCC2NC(=O)NC21)C(=O)NC(CCN)C(=O)NC(Cc1ccc(O)cc1)C(=O)NC(c1ccc(NC(=N)N)cc1)P(=O)(Oc1ccccc1)Oc1ccccc1 (stereo not drawn) [compound 31, Tle-Dab-Tyr-Arg]	no cytotoxicity	no significant effect	does not affect the activity of other KLKs
CCC(NC(=O)C(CCN)NC(=O)C(Cc1ccc2ccccc2c1)NC(=O)CCCCCNC(=O)CCCCC1SCC2NC(=O)NC21)C(=O)NC(c1ccc(NC(=N)N)cc1)P(=O)(Oc1ccccc1)Oc1ccccc1 (stereo not drawn) [compound 39, 2Nal-Dab-Abu-Arg]	no cytotoxicity	no significant effect	significant decrease
